From ChEMBL document CHEMBL3751699, “Design, synthesis and evaluation of novel 7-aminoalkyl-substituted flavonoid derivatives with improved cholinesterase inhibitory activities” (Bioorg Med Chem, 2016)
The source made the active and inactive calls. The calls are words filed in the database; no cut-off is given here.

Key:
[1] = biological target: T1, Acetylcholinesterase (Electrophorus electricus, UniProt O42275); test: Inhibition of electric eel AChE using ATC as substrate preincubated for 15 mins followed by substrate addition measured at 1 min intervals by Ellman method
T1 sequence (O42275 whole entry): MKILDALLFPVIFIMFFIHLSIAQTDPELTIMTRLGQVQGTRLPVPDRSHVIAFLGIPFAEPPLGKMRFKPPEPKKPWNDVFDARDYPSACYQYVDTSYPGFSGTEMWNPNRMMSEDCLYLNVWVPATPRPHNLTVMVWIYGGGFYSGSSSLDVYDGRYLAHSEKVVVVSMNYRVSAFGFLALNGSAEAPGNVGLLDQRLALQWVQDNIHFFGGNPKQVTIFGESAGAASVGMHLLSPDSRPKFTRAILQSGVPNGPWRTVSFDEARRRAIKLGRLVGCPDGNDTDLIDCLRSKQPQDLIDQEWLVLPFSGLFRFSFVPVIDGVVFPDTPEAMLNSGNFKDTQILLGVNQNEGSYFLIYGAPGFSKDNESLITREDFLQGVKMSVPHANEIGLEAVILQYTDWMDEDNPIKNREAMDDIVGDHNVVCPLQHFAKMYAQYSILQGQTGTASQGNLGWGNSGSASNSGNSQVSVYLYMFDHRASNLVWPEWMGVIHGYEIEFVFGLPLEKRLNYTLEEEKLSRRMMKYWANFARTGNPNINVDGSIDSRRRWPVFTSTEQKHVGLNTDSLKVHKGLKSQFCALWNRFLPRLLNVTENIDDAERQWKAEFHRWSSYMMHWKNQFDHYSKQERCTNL

[2] = biological target: Cholinesterase (Equus caballus, UniProt P81908); test: Inhibition of equine serum BChE using BTC as substrate preincubated for 15 mins followed by substrate addition measured at 1 min intervals by Ellman method
Chain of Cholinesterase (P81908 whole entry): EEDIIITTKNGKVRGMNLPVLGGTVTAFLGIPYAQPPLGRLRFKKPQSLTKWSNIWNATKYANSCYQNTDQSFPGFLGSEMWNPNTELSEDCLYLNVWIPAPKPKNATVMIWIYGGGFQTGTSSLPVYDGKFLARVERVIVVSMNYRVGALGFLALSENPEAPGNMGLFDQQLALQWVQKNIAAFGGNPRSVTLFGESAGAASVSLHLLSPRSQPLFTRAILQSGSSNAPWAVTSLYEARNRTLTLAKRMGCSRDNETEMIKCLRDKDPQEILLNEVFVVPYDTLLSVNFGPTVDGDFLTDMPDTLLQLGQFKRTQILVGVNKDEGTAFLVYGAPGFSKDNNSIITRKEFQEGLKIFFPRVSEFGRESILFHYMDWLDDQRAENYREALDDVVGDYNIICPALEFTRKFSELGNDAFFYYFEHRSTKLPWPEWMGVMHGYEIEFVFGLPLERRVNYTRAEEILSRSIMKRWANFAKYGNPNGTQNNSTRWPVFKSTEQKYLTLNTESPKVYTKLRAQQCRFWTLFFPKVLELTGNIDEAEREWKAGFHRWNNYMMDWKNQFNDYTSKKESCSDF

[3] = Selectivtiy index, ratio of IC50 for equine serum BChE to IC50 for electric eel AChE
[4] = Cytotoxicity against rat PC12 cells at 1 uM after 48 hrs by MTT assay; format: cell-based, PC-12; conditions: read-out: INH
[5] = Cytotoxicity against rat PC12 cells at 10 uM after 48 hrs by MTT assay; format: cell-based, PC-12; conditions: read-out: INH
[6] = Cytotoxicity against human HepG2 cells at 1 uM after 48 hrs by MTT assay; format: cell-based; conditions: read-out: INH
[7] = Cytotoxicity against human HepG2 cells at 10 uM after 48 hrs by MTT assay; format: cell-based; conditions: read-out: INH
[8] = biological target: Acetylcholinesterase (Electrophorus electricus) (UniProt O42275); test: Potency index, ratio of IC50 for rivastigmine to IC50 for test compound for inhibition of electric eel AChE by Ellman method
Chain of Acetylcholinesterase (Electrophorus electricus) (O42275 24-633 limits assumed): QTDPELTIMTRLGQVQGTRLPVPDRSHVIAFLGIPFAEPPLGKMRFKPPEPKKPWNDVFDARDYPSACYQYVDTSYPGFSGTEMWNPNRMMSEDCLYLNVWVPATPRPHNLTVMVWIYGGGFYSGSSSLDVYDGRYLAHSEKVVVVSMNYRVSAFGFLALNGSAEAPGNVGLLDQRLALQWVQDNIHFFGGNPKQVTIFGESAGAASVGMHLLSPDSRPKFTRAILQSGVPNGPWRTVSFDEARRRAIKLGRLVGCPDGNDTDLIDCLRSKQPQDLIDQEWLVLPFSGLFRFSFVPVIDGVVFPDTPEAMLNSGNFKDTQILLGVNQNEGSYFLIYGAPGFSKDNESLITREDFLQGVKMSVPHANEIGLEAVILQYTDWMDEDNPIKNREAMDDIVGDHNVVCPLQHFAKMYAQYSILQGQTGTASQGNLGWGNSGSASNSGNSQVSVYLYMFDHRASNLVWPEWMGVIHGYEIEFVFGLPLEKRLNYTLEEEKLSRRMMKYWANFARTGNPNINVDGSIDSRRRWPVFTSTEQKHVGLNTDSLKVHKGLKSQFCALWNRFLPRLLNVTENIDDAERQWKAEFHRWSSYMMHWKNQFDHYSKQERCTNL

[9] = biological target: Cholinesterase (Equus caballus) (UniProt P81908); test: Mixed-type inhibition of equine serum BChE using BTC as substrate assessed as hydrolysis of BTC preincubated with protein for 15 mins followed by substrate addition by Lineweaver-Burk plot analysis
Chain of Cholinesterase (Equus caballus) (P81908 whole entry): as the sequence (P81908 whole entry) above

[10] = biological target: T1, Acetylcholinesterase; test: Mixed-type inhibition of electric eel AChE using ATC as substrate assessed as hydrolysis of ATC preincubated with protein for 15 mins followed by substrate addition by Lineweaver-Burk plot analysis

SMILES: O=c1cc(-c2cccc(O)c2)oc2cc(OCCCCCCCCN3CCCC3)ccc12
- IC50 [1]: 1.12 µM
- IC50 [2]: 4.92 µM
- Ratio IC50 [3]: 4.39
- cytotoxicity at 48 h, 1 µM [4]: -4.43%
- cytotoxicity at 48 h, 10 µM [5]: -6.56%
- cytotoxicity at 48 h, 1 µM [6]: 19%
- cytotoxicity at 48 h, 10 µM [7]: 43.9%

SMILES: Cc1ccc(-c2cc(=O)c3ccc(OCCCCCCCCN4CCCC4)cc3o2)cc1
- IC50 [1]: 1.25 µM
- IC50 [2]: 1.92 µM
- Ratio IC50 [3]: 1.54
- cytotoxicity at 48 h, 1 µM [4]: -0.55%
- cytotoxicity at 48 h, 10 µM [5]: -0.03%
- cytotoxicity at 48 h, 1 µM [6]: 9.17%
- cytotoxicity at 48 h, 10 µM [7]: 77.1%

SMILES: COc1ccccc1-c1cc(=O)c2ccc(OCCCCCCCCN3CCCC3)cc2o1
- IC50 [1]: 0.64 µM
- IC50 [2]: 0.76 µM
- Ratio IC50 [3]: 1.19
- Ratio IC50 [8]: 10
- cytotoxicity at 48 h, 1 µM [4]: 3.08%
- cytotoxicity at 48 h, 10 µM [5]: 3.4%
- cytotoxicity at 48 h, 1 µM [6]: 5.9%
- cytotoxicity at 48 h, 10 µM [7]: 24.3%

SMILES: O=c1cc(-c2ccccc2OCc2ccccc2)oc2cc(OCCCCCCCCN3CCCC3)ccc12
- IC50 [1]: 2.01 µM
- IC50 [2]: 5.26 µM
- Ratio IC50 [3]: 2.62
- cytotoxicity at 48 h, 1 µM [4]: 0.47%
- cytotoxicity at 48 h, 10 µM [5]: 22.9%
- cytotoxicity at 48 h, 1 µM [6]: 19.7%
- cytotoxicity at 48 h, 10 µM [7]: 34.1%

SMILES: Nc1c2c(nc3ccccc13)CCCC2 [TACRINE]
- cytotoxicity at 48 h, 1 µM [4]: 4.62%
- cytotoxicity at 48 h, 10 µM [5]: 10.2%

SMILES: O=c1cc(-c2ccc(Br)cc2)oc2cc(OCCCCCCCCN3CCCC3)ccc12
- IC50 [1]: 2.15 µM
- IC50 [2]: 10.2 µM
- Ratio IC50 [3]: 4.77
- cytotoxicity at 48 h, 1 µM [4]: 2.5%
- cytotoxicity at 48 h, 10 µM [5]: -12.5%
- cytotoxicity at 48 h, 1 µM [6]: 13.3%
- cytotoxicity at 48 h, 10 µM [7]: 10.8%

SMILES: O=c1cc(-c2ccc(O)cc2)oc2cc(OCCCCCCCCN3CCCC3)ccc12
- IC50 [1]: 1.21 µM
- IC50 [2]: 4.58 µM
- Ratio IC50 [3]: 3.79
- cytotoxicity at 48 h, 1 µM [4]: 0.7%
- cytotoxicity at 48 h, 10 µM [5]: 7.42%
- cytotoxicity at 48 h, 1 µM [6]: 18.5%
- cytotoxicity at 48 h, 10 µM [7]: 21.4%

SMILES: O=c1cc(-c2ccccc2O)oc2cc(OCCCCCCCCN3CCCC3)ccc12
- IC50 [1]: 3.07 µM
- IC50 [2]: 1.26 µM
- Ratio IC50 [3]: 0.41
- cytotoxicity at 48 h, 1 µM [4]: -7.71%
- cytotoxicity at 48 h, 10 µM [5]: 6.61%
- cytotoxicity at 48 h, 1 µM [6]: 5.92%
- cytotoxicity at 48 h, 10 µM [7]: 60.6%

SMILES: COc1ccc(-c2cc(=O)c3ccc(OCCCCCCCCN4CCCC4)cc3o2)cc1
- IC50 [1]: 1.7 µM
- IC50 [2]: 5.42 µM
- Ratio IC50 [3]: 3.19
- cytotoxicity at 48 h, 1 µM [4]: -0.15%
- cytotoxicity at 48 h, 10 µM [5]: -6.72%
- cytotoxicity at 48 h, 1 µM [6]: 6.69%
- cytotoxicity at 48 h, 10 µM [7]: 21.5%

SMILES: O=c1cc(-c2ccc(Cl)cc2)oc2cc(OCCCCCCCCN3CCCC3)ccc12
- IC50 [1]: 1.12 µM
- IC50 [2]: 3.46 µM
- Ratio IC50 [3]: 3.09
- cytotoxicity at 48 h, 1 µM [4]: 6.27%
- cytotoxicity at 48 h, 10 µM [5]: -1.7%
- cytotoxicity at 48 h, 1 µM [6]: 6.39%
- cytotoxicity at 48 h, 10 µM [7]: 25.7%

SMILES: O=c1cc(-c2cccc(OCc3ccccc3)c2)oc2cc(OCCCCCCCCN3CCCC3)ccc12
- IC50 [1]: 1.58 µM
- IC50 [2]: > 25 µM
- Ratio IC50 [3]: > 15.8
- cytotoxicity at 48 h, 1 µM [4]: 0.79%
- cytotoxicity at 48 h, 10 µM [5]: -2.53%
- cytotoxicity at 48 h, 1 µM [6]: 6.63%
- cytotoxicity at 48 h, 10 µM [7]: 30.6%

SMILES: O=c1cc(-c2ccccc2)oc2cc(OCCCCCCCCN3CCCC3)ccc12
- IC50 [1]: 1.09 µM
- IC50 [2]: 2.24 µM
- Ratio IC50 [3]: 2.05
- cytotoxicity at 48 h, 1 µM [4]: -2.83%
- cytotoxicity at 48 h, 10 µM [5]: 1.37%
- cytotoxicity at 48 h, 1 µM [6]: 11.3%
- cytotoxicity at 48 h, 10 µM [7]: 8.97%

SMILES: COc1cc(-c2cc(=O)c3ccc(OCCCCCCCCN4CCCC4)cc3o2)cc(OC)c1OC
- IC50 [1]: 1.08 µM
- IC50 [2]: 2.2 µM
- Ratio IC50 [3]: 2.04
- cytotoxicity at 48 h, 1 µM [4]: -4.47%
- cytotoxicity at 48 h, 10 µM [5]: -13.8%
- cytotoxicity at 48 h, 1 µM [6]: 16.3%
- cytotoxicity at 48 h, 10 µM [7]: 41.4%

SMILES: COc1cccc(-c2cc(=O)c3ccc(OCCCCCCCCN4CCCC4)cc3o2)c1
- IC50 [1]: 0.67 µM
- IC50 [2]: 2.29 µM
- Ratio IC50 [3]: 3.42
- cytotoxicity at 48 h, 1 µM [4]: 3.53%
- cytotoxicity at 48 h, 10 µM [5]: -18.2%
- cytotoxicity at 48 h, 1 µM [6]: 16.2%
- cytotoxicity at 48 h, 10 µM [7]: 23.7%

SMILES: O=c1cc(-c2ccc(-c3ccccc3)cc2)oc2cc(OCCCCCCCCN3CCCC3)ccc12
- IC50 [1]: 4.8 µM
- IC50 [2]: > 25 µM
- Ratio IC50 [3]: > 5.21
- cytotoxicity at 48 h, 1 µM [4]: 0.46%
- cytotoxicity at 48 h, 10 µM [5]: 68.9%
- cytotoxicity at 48 h, 1 µM [6]: 13.9%
- cytotoxicity at 48 h, 10 µM [7]: 71.9%

SMILES: O=c1cc(-c2ccc(N3CCCC3)cc2)oc2cc(OCCCCCCCCN3CCCC3)ccc12
- IC50 [1]: 1.38 µM
- IC50 [2]: 4.1 µM
- Ratio IC50 [3]: 2.97
- cytotoxicity at 48 h, 1 µM [4]: 0.29%
- cytotoxicity at 48 h, 10 µM [5]: -9.56%
- cytotoxicity at 48 h, 1 µM [6]: 5.74%
- cytotoxicity at 48 h, 10 µM [7]: 19%

SMILES: COc1ccc(-c2cc(=O)c3ccc(OCCCCCCCCN4CCCC4)cc3o2)cc1OC
- IC50 [1]: 0.83 µM
- IC50 [2]: 3.43 µM
- Ratio IC50 [3]: 4.13
- cytotoxicity at 48 h, 1 µM [4]: 7.29%
- cytotoxicity at 48 h, 10 µM [5]: -2.94%
- cytotoxicity at 48 h, 1 µM [6]: 13.5%
- cytotoxicity at 48 h, 10 µM [7]: 76%

SMILES: O=c1cc(-c2cccc3ccccc23)oc2cc(OCCCCCCCCN3CCCC3)ccc12
- inhibition [9]: Active
- Ki [10]: 0.206 µM
- IC50 [1]: 0.72 µM
- IC50 [2]: 0.42 µM
- Ratio IC50 [3]: 0.58
- cytotoxicity at 48 h, 1 µM [4]: 3%
- cytotoxicity at 48 h, 10 µM [5]: 9.01%
- cytotoxicity at 48 h, 1 µM [6]: 4.42%
- cytotoxicity at 48 h, 10 µM [7]: 18.9%

SMILES: O=c1cc(-c2ccc(OCc3ccccc3)cc2)oc2cc(OCCCCCCCCN3CCCC3)ccc12
- IC50 [1]: 1.9 µM
- IC50 [2]: > 25 µM
- Ratio IC50 [3]: > 13.2
- cytotoxicity at 48 h, 1 µM [4]: -2.83%
- cytotoxicity at 48 h, 10 µM [5]: 1.37%
- cytotoxicity at 48 h, 1 µM [6]: 10.4%
- cytotoxicity at 48 h, 10 µM [7]: 54.3%
